# Laboratory results reported in patent US20250319172A1, “ANTICANCER VACCINE COMPOSITION COMPRISING HSP90 ANTIGENIC PEPTIDE AND USE THEREOF” (ASTON SCI. INC., priority 2021, published 2025).
# Test system: HSP90 antigenic peptide-specific IFN-γ production in spleen cells
# Assay: IFN-γ ELISpot of splenocytes after test vaccination (Th1 immune response), Example 1
# Format: in vivo, C57BL/6 mice
# Details: antigen HSP90 peptide of SEQ ID NO: 1; s.c. three times every 10 days; splenocytes 10 days after last inoculation; FIG. 1A
# Procedure: To analyze the efficacy of antigenic peptides selected from HSP90 (see Table 1) and various adjuvants and liposomes, test vaccines were prepared with the compositions in Table 2 and Table 3. In the case of G6 and G7 formulations, since a liposome is included in the formulations, the drug release rate is slowed, and in this regard, the amount of antigenic peptide was reduced to 20% when preparing the test vaccine. The prepared test vaccine G to G7 formulations were immunized using C57BL/B6 mice (female, 7 weeks old), 4 mice per group. […]
# The test vaccine was inoculated with each vaccine formulation by subcutaneous injection three times every 10 days for 4 mice in each group, and splenocytes were isolated from the spleens of mice sacrificed 10 days after the last inoculation, the specific response to each HSP90 antigenic peptide was measured through the ELISpot method for IFN-γ or IL-10 stimulated by the HSP90 antigenic peptide (stimulant) of SEQ ID NO: 1 or SEQ ID NO: 2 according to the previously known method by Disis et al. (J Clin Oncol. 2009 Oct. 1; 27 (28): 4685-92).
# If HSP90 antigenic peptide-specific IFN-γ production increased in spleen cells measured by the ELISpot method after test vaccination, the Th1 immune response was considered activated, and if the HSP90 antigenic peptide-specific IL-10 production increased, the Th2 immune response was considered activated.
sequence,measurement,value
"LYVRRVFIMDNCEEL [SEQ ID NO: 1, HSP90 antigenic peptide, region p485-499 of HSP90]",HSP90-specific Th1 immune response (IFN-γ ELISpot),effectively induces HSP90-specific T cell immune response
